Experimental data as given in patent publication US8445676B2, “Pyrrolotriazine kinase inhibitors” (Bristol-Myers Squibb Company, priority 2008, dated 2013).

molecular target: JAK2 (Homo sapiens, UniProt O60674); experiment: JAK2 Tyrosine Kinase Assay; type: biochemical; conditions: list of named compounds; read-out: IC50 in the JAK2 assay
Description: JAK2 Tyrosine Kinase Assay
The assays were performed in V-bottom 384-well plates. […] The reaction was initiated by the combination of JAK2 with substrates and test compounds. The reaction was incubated at room temperature for 60 min. and terminated by adding 45 μl of 35 mM EDTA to each sample. The reaction mixture was analyzed on the Caliper LabChip 3000 by electrophoretic separation of the fluorescent substrate and phosphorylated product. […] Compounds were dissolved at 10 mM in dimethylsulfoxide (DMSO) and evaluated at eleven concentrations, each in duplicate. IC50 values were derived by non-linear regression analysis

JAK2, sequence (O60674 whole entry): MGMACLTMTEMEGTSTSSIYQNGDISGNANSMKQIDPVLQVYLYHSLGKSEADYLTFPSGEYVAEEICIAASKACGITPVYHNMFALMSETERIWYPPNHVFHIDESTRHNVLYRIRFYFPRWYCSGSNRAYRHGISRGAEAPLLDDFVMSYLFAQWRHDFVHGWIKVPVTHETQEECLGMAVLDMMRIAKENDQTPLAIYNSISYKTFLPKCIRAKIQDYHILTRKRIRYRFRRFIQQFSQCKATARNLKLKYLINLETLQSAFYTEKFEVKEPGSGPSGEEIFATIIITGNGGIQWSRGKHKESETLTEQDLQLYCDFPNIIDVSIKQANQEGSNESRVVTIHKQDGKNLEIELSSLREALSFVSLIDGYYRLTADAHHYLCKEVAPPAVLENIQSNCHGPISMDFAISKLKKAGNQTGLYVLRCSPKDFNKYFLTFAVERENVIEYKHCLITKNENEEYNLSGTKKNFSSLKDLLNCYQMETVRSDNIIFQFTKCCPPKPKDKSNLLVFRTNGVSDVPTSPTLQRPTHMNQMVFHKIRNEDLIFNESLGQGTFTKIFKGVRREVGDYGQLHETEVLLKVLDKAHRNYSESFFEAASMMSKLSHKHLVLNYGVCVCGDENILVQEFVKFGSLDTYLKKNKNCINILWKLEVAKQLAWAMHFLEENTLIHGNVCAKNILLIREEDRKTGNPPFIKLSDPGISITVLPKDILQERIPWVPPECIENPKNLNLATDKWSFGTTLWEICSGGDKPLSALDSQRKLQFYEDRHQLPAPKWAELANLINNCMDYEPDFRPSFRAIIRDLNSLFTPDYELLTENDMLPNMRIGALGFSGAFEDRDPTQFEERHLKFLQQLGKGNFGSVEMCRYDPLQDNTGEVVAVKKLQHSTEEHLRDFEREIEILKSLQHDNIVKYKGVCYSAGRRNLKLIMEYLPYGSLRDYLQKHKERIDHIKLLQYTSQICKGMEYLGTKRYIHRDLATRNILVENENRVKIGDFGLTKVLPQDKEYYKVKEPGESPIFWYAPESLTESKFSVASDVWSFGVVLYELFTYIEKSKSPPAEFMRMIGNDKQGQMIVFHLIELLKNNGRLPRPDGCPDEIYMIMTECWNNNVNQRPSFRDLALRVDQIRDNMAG

Structure (SMILES)	IC50 [nM]
Cc1cc(Nc2nc(N3CCN(C(=O)Cc4cccc(C#N)c4)CC3)nn3cccc23)n[nH]1 [3-(2-(4-(4-((5-methyl-1H-pyrazol-3-yl)amino)pyrrolo[2,1-f][1,2,4]triazin-2-yl)-1-piperazinyl)-2-oxoethyl)benzonitrile]	≤ 5
CC(=O)NC(C(=O)N1CCN(c2nc(Nc3cc(C)[nH]n3)c3cccn3n2)CC1)c1ccccc1 (stereo not shown) [N-(2-(4-(4-((5-methyl-1H-pyrazol-3-yl)amino)pyrrolo[2,1-f][1,2,4]triazin-2-yl)-1-piperazinyl)-2-oxo-1-phenylethyl)acetamide]	≤ 5
Cc1cc(Nc2nc(N3CCN(C(=O)C4(c5ccccc5)CCC4)CC3)nn3cccc23)n[nH]1 [N-(5-methyl-1H-pyrazol-3-yl)-2-(4-((1-phenylcyclobutyl)carbonyl)-1-piperazinyl)pyrrolo[2,1-f][1,2,4]triazin-4-amine]	≤ 5
Cc1cc(Nc2nc(N3CCN(C(=O)Cc4cccc(Cl)c4)CC3)nn3cccc23)n[nH]1 [2-(4-((3-chlorophenyl)acetyl)-1-piperazinyl)-N-(5-methyl-1H-pyrazol-3-yl)pyrrolo[2,1-f][1,2,4]triazin-4-amine]	≤ 5
Cc1cc(Nc2nc(N3CCN(C(=O)C4(c5ccccc5)CCCC4)CC3)nn3cccc23)n[nH]1 [N-(5-methyl-1H-pyrazol-3-yl)-2-(4-((1-phenylcyclopentyl)carbonyl)-1-piperazinyl)pyrrolo[2,1-f][1,2,4]triazin-4-amine]	≤ 5
CCCCC(=O)N1CCN(c2nc(Nc3cc(C)[nH]n3)c3cccn3n2)CC1 [N-(5-methyl-1H-pyrazol-3-yl)-2-(4-pentanoyl-1-piperazinyl)pyrrolo[2,1-f][1,2,4]triazin-4-amine]	≤ 5
Cc1cc(Nc2nc(N3CCN(C(=O)C(O)c4c(F)cccc4F)CC3)nn3cccc23)n[nH]1 (stereo not shown) [1-(2,6-difluorophenyl)-2-(4-(4-((5-methyl-1H-pyrazol-3-yl)amino)pyrrolo[2,1-f][1,2,4]triazin-2-yl)-1-piperazinyl)-2-oxoethanol]	≤ 5
Cc1cc(Nc2nc(N3CCN(C(=O)Cc4ccccc4C(F)(F)F)CC3)nn3cccc23)n[nH]1 [N-(5-methyl-1H-pyrazol-3-yl)-2-(4-((2-(trifluoromethyl)phenyl)acetyl)-1-piperazinyl)pyrrolo[2,1-f][1,2,4]triazin-4-amine]	≤ 5
Cc1cc(Nc2nc(N3CCN(C(=O)C4CC(=O)c5ccccc54)CC3)nn3cccc23)n[nH]1 (stereo not shown) [3-((4-(4-((5-methyl-1H-pyrazol-3-yl)amino)pyrrolo[2,1-f][1,2,4]triazin-2-yl)-1-piperazinyl)carbonyl)-1-indanone]	≤ 5
Cc1cccc(CC(=O)N2CCN(c3nc(Nc4cc(C)[nH]n4)c4cccn4n3)CC2)c1 [2-(4-((3-methylphenyl)acetyl)-1-piperazinyl)-N-(5-methyl-1H-pyrazol-3-yl)pyrrolo[2,1-f][1,2,4]triazin-4-amine]	≤ 5
Cc1cc(Nc2nc(N3CCN(C(=O)c4cccc(C(F)(F)F)c4)CC3)nn3cccc23)n[nH]1 [N-(5-methyl-1H-pyrazol-3-yl)-2-(4-(3-(trifluoromethyl)benzoyl)-1-piperazinyl)pyrrolo[2,1-f][1,2,4]triazin-4-amine]	≤ 5
CCC(C)(C)C(=O)N1CCN(c2nc(Nc3cc(C)[nH]n3)c3cccn3n2)CC1 [2-(4-(2,2-dimethylbutanoyl)-1-piperazinyl)-N-(5-methyl-1H-pyrazol-3-yl)pyrrolo[2,1-f][1,2,4]triazin-4-amine]	≤ 5
Cc1cc(Nc2nc(N3CCN(C(=O)c4ccc(Cl)cc4Cl)CC3)nn3cccc23)n[nH]1 [2-(4-(2,4-dichlorobenzoyl)-1-piperazinyl)-N-(5-methyl-1H-pyrazol-3-yl)pyrrolo[2,1-f][1,2,4]triazin-4-amine]	≤ 5
Cc1cc(Nc2nc(N3CCN(C(=O)c4ncco4)CC3)nn3cccc23)n[nH]1 [N-(5-methyl-1H-pyrazol-3-yl)-2-(4-(1,3-oxazol-2-ylcarbonyl)-1-piperazinyl)pyrrolo[2,1-f][1,2,4]triazin-4-amine]	≤ 5
Cc1cc(Nc2nc(N3CCN(C(=O)c4cc(C)oc4C)CC3)nn3cccc23)n[nH]1 [2-(4-(2,5-dimethyl-3-furoyl)-1-piperazinyl)-N-(5-methyl-1H-pyrazol-3-yl)pyrrolo[2,1-f][1,2,4]triazin-4-amine]	≤ 5
COc1ccc(C(=O)N2CCN(c3nc(Nc4cc(C)[nH]n4)c4cccn4n3)CC2)cc1 [2-(4-(4-methoxybenzoyl)-1-piperazinyl)-N-(5-methyl-1H-pyrazol-3-yl)pyrrolo[2,1-f][1,2,4]triazin-4-amine]	≤ 5

Results, then the compound that gave them:

IC50 [nM]	Structure (SMILES)
≤ 5	Cc1cc(Nc2nc(N3CCN(C(=O)C(O)c4ccc(F)cc4)CC3)nn3cccc23)n[nH]1 (stereo not shown) [1-(4-fluorophenyl)-2-(4-(4-((5-methyl-1H-pyrazol-3-yl)amino)pyrrolo[2,1-f][1,2,4]triazin-2-yl)-1-piperazinyl)-2-oxoethanol]
≤ 5	Cc1cc(Nc2nc(N3CCN(C(=O)C4(c5ccccc5)CC4)CC3)nn3cccc23)n[nH]1 [N-(5-methyl-1H-pyrazol-3-yl)-2-(4-((1-phenylcyclopropyl)carbonyl)-1-piperazinyl)pyrrolo[2,1-f][1,2,4]triazin-4-amine]
≤ 5	COc1ccc(CC(=O)N2CCN(c3nc(Nc4cc(C)[nH]n4)c4cccn4n3)CC2)cc1 [2-(4-((4-methoxyphenyl)acetyl)-1-piperazinyl)-N-(5-methyl-1H-pyrazol-3-yl)pyrrolo[2,1-f][1,2,4]triazin-4-amine]
≤ 5	Cc1cc(Nc2nc(N3CCN(C(=O)[C@@H](NC(=O)OC(C)(C)C)c4ccc(F)cc4)CC3)nn3cccc23)n[nH]1 [tert-butyl((1S)-1-(4-fluorophenyl)-2-(4-(4-((5-methyl-1H-pyrazol-3-yl)amino)pyrrolo[2,1-f][1,2,4]triazin-2-yl)-1-piperazinyl)-2-oxoethyl)carbamate]
≤ 5	Cc1cc(Nc2nc(N3CCN(C(=O)c4cccnc4C)CC3)nn3cccc23)n[nH]1 [N-(5-methyl-1H-pyrazol-3-yl)-2-(4-((2-methyl-3-pyridinyl)carbonyl)-1-piperazinyl)pyrrolo[2,1-f][1,2,4]triazin-4-amine]
≤ 5	Cc1cc(Nc2nc(N3CCN(C(=O)Cc4c(F)cccc4F)CC3)nn3cccc23)n[nH]1 [2-(4-((2,6-difluorophenyl)acetyl)-1-piperazinyl)-N-(5-methyl-1H-pyrazol-3-yl)pyrrolo[2,1-f][1,2,4]triazin-4-amine]
≤ 5	Cc1cc(Nc2nc(N3CCN(C(=O)c4ccccc4C(F)(F)F)CC3)nn3cccc23)n[nH]1 [N-(5-methyl-1H-pyrazol-3-yl)-2-(4-(2-(trifluoromethyl)benzoyl)-1-piperazinyl)pyrrolo[2,1-f][1,2,4]triazin-4-amine]
≤ 5	Cc1cc(Nc2nc(N3CCN(C(=O)C(C)c4ccc(Cl)cc4)CC3)nn3cccc23)n[nH]1 (stereo not shown) [2-(4-(2-(4-chlorophenyl)propanoyl)-1-piperazinyl)-N-(5-methyl-1H-pyrazol-3-yl)pyrrolo[2,1-f][1,2,4]triazin-4-amine]
≤ 5	Cc1cc(Nc2nc(N3CCN(C(=O)c4ccccc4F)CC3)nn3cccc23)n[nH]1 [2-(4-(2-fluorobenzoyl)-1-piperazinyl)-N-(5-methyl-1H-pyrazol-3-yl)pyrrolo[2,1-f][1,2,4]triazin-4-amine]
